Key:
Assay in all cases: relative viability (nuclei count vs DMSO), 5 days (fraction); higher = more cells survive
[1] = test system: 201T
In short: (§1)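 Cells from lung cancer lines were seeded into 1536-well plates and, one day later, dosed by pin tool. Treatments were either a single drug or a fixed dose of an anchor drug with five library-drug doses (not always all listed) in √10 steps. After 5 days, nuclei were stained in a one-step fixation (final 0.05% Triton X-100, 1% formaldehyde, 1 ug/ml Hoechst) and counted on 4× images, and relative viability is the treated-to-vehicle nuclei ratio, as the median of duplicate plates.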

[2] = test system: NCI-H727
In short: as §1

[3] = test system: NCI-H1437
In short: as §1

[4] = test system: LCLC-97TM1
In short: as §1

[5] = test system: NCI-H647
In short: as §1

[6] = test system: NCI-H1944
In short: as §1

[7] = test system: SK-LU-1
In short: as §1

[8] = test system: NCI-H1395
In short: as §1

[9] = test system: NCI-H1793
In short: as §1

[10] = test system: LXF-289
In short: as §1

[11] = test system: HCC-827
In short: as §1

[12] = test system: BEN
In short: as §1

[13] = test system: NCI-H1792
In short: as §1

[14] = test system: RERF-LC-KJ
In short: as §1

[15] = test system: NCI-H2228
In short: as §1

[16] = test system: NCI-H2405
In short: as §1

[17] = test system: NCI-H322M
In short: as §1

[18] = test system: NCI-H3122
In short: as §1

[19] = test system: CAL-12T
In short: as §1

[20] = test system: LCLC-103H
In short: as §1

[21] = test system: NCI-H1650
In short: as §1

[22] = test system: NCI-H2087
In short: as §1

## Cc1sc2c(c1C)C(c1ccc(Cl)cc1)=N[C@@H](CC(=O)OC(C)(C)C)c1nnc(C)n1-2 [JQ1] + CS(=O)(=O)N1CCN(Cc2cc3nc(-c4cccc5[nH]ncc45)nc(N4CCOCC4)c3s2)CC1 [Pictilisib] (partner 1 µM)
[1]; first compound 0.04 µM
  relative viability: 0.656
[1]; first compound 0.1265 µM
  relative viability: 0.644
[1]; first compound 0.4 µM
  relative viability: 0.519
[1]; first compound 1.265 µM
  relative viability: 0.474
[1]; first compound 4 µM
  relative viability: 0.399
[2]; first compound 0.04 µM
  relative viability: 0.371
[2]; first compound 0.1265 µM
  relative viability: 0.554
[2]; first compound 0.4 µM
  relative viability: 0.205
[2]; first compound 1.265 µM
  relative viability: 0.233
[2]; first compound 4 µM
  relative viability: 0.309
[3]; first compound 0.04 µM
  relative viability: 0.405
[3]; first compound 0.1265 µM
  relative viability: 0.237
[3]; first compound 0.4 µM
  relative viability: 0.233
[3]; first compound 1.265 µM
  relative viability: 0.157
[3]; first compound 4 µM
  relative viability: 0.168
[4]; first compound 0.1265 µM
  relative viability: 0.28
[4]; first compound 0.4 µM
  relative viability: 0.176
[4]; first compound 1.265 µM
  relative viability: 0.105
[4]; first compound 4 µM
  relative viability: 0.107
[5]; first compound 0.04 µM
  relative viability: 0.428
[5]; first compound 0.1265 µM
  relative viability: 0.3
[5]; first compound 0.4 µM
  relative viability: 0.305
[5]; first compound 1.265 µM
  relative viability: 0.188
[5]; first compound 4 µM
  relative viability: 0.15
[6]; first compound 0.04 µM
  relative viability: 0.357
[6]; first compound 0.1265 µM
  relative viability: 0.332
[6]; first compound 0.4 µM
  relative viability: 0.311
[6]; first compound 1.265 µM
  relative viability: 0.288
[6]; first compound 4 µM
  relative viability: 0.307
[7]; first compound 0.04 µM
  relative viability: 0.581
[7]; first compound 0.1265 µM
  relative viability: 0.438
[7]; first compound 0.4 µM
  relative viability: 0.456
[7]; first compound 1.265 µM
  relative viability: 0.256
[7]; first compound 4 µM
  relative viability: 0.171
[8]; first compound 0.04 µM
  relative viability: 0.652
[8]; first compound 0.1265 µM
  relative viability: 0.582
[8]; first compound 0.4 µM
  relative viability: 0.62
[8]; first compound 1.265 µM
  relative viability: 0.403
[8]; first compound 4 µM
  relative viability: 0.407
[9]; first compound 0.04 µM
  relative viability: 0.434
[9]; first compound 0.1265 µM
  relative viability: 0.391
[9]; first compound 0.4 µM
  relative viability: 0.564
[9]; first compound 1.265 µM
  relative viability: 0.339
[9]; first compound 4 µM
  relative viability: 0.453
[10]; first compound 0.04 µM
  relative viability: 0.792
[10]; first compound 0.1265 µM
  relative viability: 0.783
[10]; first compound 0.4 µM
  relative viability: 0.629
[10]; first compound 1.265 µM
  relative viability: 0.462
[10]; first compound 4 µM
  relative viability: 0.409
[11]; first compound 0.04 µM
  relative viability: 1.06
[11]; first compound 0.4 µM
  relative viability: 0.544
[11]; first compound 1.265 µM
  relative viability: 0.911
[11]; first compound 4 µM
  relative viability: 0.752
[12]; first compound 0.04 µM
  relative viability: 0.481
[12]; first compound 0.1265 µM
  relative viability: 0.486
[12]; first compound 0.4 µM
  relative viability: 0.461
[12]; first compound 1.265 µM
  relative viability: 0.272
[12]; first compound 4 µM
  relative viability: 0.205
[13]; first compound 0.04 µM
  relative viability: 0.273
[13]; first compound 0.4 µM
  relative viability: 0.31
[13]; first compound 1.265 µM
  relative viability: 0.188
[13]; first compound 4 µM
  relative viability: 0.174
[14]; first compound 0.04 µM
  relative viability: 0.579
[14]; first compound 0.1265 µM
  relative viability: 0.661
[14]; first compound 0.4 µM
  relative viability: 0.595
[14]; first compound 1.265 µM
  relative viability: 0.304
[14]; first compound 4 µM
  relative viability: 0.337
[15]; first compound 0.04 µM
  relative viability: 0.372
[15]; first compound 0.1265 µM
  relative viability: 0.327
[15]; first compound 0.4 µM
  relative viability: 0.259
[15]; first compound 1.265 µM
  relative viability: 0.245
[15]; first compound 4 µM
  relative viability: 0.201
[16]; first compound 0.04 µM
  relative viability: 0.536
[16]; first compound 0.4 µM
  relative viability: 0.405
[16]; first compound 1.265 µM
  relative viability: 0.263
[16]; first compound 4 µM
  relative viability: 0.221
[17]; first compound 0.04 µM
  relative viability: 0.478
[17]; first compound 0.1265 µM
  relative viability: 0.559
[17]; first compound 0.4 µM
  relative viability: 0.439
[17]; first compound 1.265 µM
  relative viability: 0.398
[17]; first compound 4 µM
  relative viability: 0.358
[18]; first compound 0.04 µM
  relative viability: 0.576
[18]; first compound 0.1265 µM
  relative viability: 0.624
[18]; first compound 0.4 µM
  relative viability: 0.675
[18]; first compound 1.265 µM
  relative viability: 0.425
[18]; first compound 4 µM
  relative viability: 0.445
[19]; first compound 0.04 µM
  relative viability: 0.414
[19]; first compound 0.4 µM
  relative viability: 0.457
[19]; first compound 1.265 µM
  relative viability: 0.293
[19]; first compound 4 µM
  relative viability: 0.36
[20]; first compound 0.04 µM
  relative viability: 0.571
[20]; first compound 0.1265 µM
  relative viability: 0.522
[20]; first compound 0.4 µM
  relative viability: 0.537
[20]; first compound 1.265 µM
  relative viability: 0.4
[20]; first compound 4 µM
  relative viability: 0.352
[21]; first compound 0.04 µM
  relative viability: 0.625
[21]; first compound 0.1265 µM
  relative viability: 0.445
[21]; first compound 0.4 µM
  relative viability: 0.286
[21]; first compound 1.265 µM
  relative viability: 0.122
[21]; first compound 4 µM
  relative viability: 0.169
[22]; first compound 0.04 µM
  relative viability: 0.792
[22]; first compound 0.4 µM
  relative viability: 1.05
[22]; first compound 1.265 µM
  relative viability: 0.318
[22]; first compound 4 µM
  relative viability: 0.384
